Reference: article PMC9029893 (International Journal of Molecular Sciences, 2022)
One block for each molecule: values may come before it.

How the values were obtained:
factor X = target: T1, factor X (Homo sapiens, UniProt P00742); experiment: Factor X activity; type: biochemical
T1 construct: 50 µL of four-fold diluted PPP, 50 μL of deficient plasma factor X, 10 μL of the examined compound; from tissue; host or cells: platelet-poor plasma (PPP), mixed with factor X-depleted plasma (Bio-Ksel)
Experimental: The activity of FX was measured optically using deficient plasma factor X [75]. The content of each sample was as follows: 50 µL of four-fold diluted PPP, 50 μL of deficient plasma factor X, 10 μL of the examined compound, and 100 µL PT reagent. The control samples contained 10 μL of distilled water and methanol (1:1). The measurement of PT time was recorded using a CoagChrom-3003 coagulometer (Bio-Ksel, Grudziadz, Poland). The activity of factor X was counted using a calibration curve (R^2 = 0.999) performed on a calibrator diluted in the range 1:5–1:80 [76]. The variation in plasma coagulation time is proportional to the concentration and activity of factor X in the patient plasma treated with the tested compounds. The coefficient of variability for the method was calculated as CV = 1.80%. The reference values for factor X activity ranged from 77–131%.

HUVEC cells = experiment: HUVEC migration, wound-healing assay (JuLI Stage); type: cell-based, human
Experimental: The effects of compounds 1–5 on HUVEC migration were determined using the JuLI™ Stage system (NanoEntek, Seoul, Korea): a real-time cell history recorder allowing for live cell imaging and analysis. The procedure for the migration experiments has been published elsewhere in more detail. Concisely, HUVECs were seeded at a density of 10,000 cells per well on 96-well plates and incubated at standard conditions for 24 h. Following this, a wound was made with a scratcher (NanoEntek, Seoul, Korea). The cells were then rinsed with 100 μL of fresh EGM2 medium, and treated with biguanides 1–5 at the concentrations of 0.3 and 1.0 mM. The cells were incubated and monitored continuously every 10 min for 36 h at 37 °C, 5% CO2. Analysis of obtained images of cell migration, and measurements of the width of the scratch area were performed using dedicated software (NanoEntek, Seoul, Korea). The results were presented as mean ± SD, n = 4–8. The CV for the method was estimated as 14.2–24.4%, depending on the time point (n = 8).

[1] = tested on: coagulation in human citrate plasma; experiment: Coagulation assay (endogenous thrombin generation); type: biochemical
Experimental: These reagents induce a feedback reaction leading to the generation of endogenous thrombin, and coagulation. The other experimental conditions were the same as for the CL-test (Section 4.12).
The obtained curves were analyzed using dedicated software that estimates the following parameters: TGt—thrombin generation time (s), Fmax—maximum clotting (%T), Tf—plasma clotting time (s), Fvo—initial plasma clotting velocity (%T/min), Sf—area under the clot formation curve (%Txmin), Tc—clot stabilization time (s), S—area under the curve of coagulation (%Txmin).

T1 sequence (P00742 41-488): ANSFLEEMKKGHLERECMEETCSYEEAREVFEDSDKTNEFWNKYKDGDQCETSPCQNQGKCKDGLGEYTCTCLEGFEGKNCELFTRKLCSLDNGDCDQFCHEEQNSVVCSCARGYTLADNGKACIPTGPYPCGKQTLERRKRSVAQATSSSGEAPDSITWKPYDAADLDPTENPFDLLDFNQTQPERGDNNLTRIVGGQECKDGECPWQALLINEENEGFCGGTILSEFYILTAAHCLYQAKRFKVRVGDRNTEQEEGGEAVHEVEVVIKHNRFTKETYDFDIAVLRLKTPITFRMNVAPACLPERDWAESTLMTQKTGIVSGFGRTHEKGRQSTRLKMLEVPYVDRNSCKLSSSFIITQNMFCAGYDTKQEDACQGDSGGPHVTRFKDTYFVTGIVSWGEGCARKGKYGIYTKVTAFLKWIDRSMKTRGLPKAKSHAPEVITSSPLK

- Factor X activity (factor X; 0.3 mM): 107.40 ± 6.19%
- Factor X activity (factor X; 0.6 mM): 104.00 ± 5.34%
- Factor X activity (factor X; 1.5 mM): 107.00 ± 4.00%
SMILES: CCCCCCCCS(=O)(=O)NC(N)=NC(=N)N(C)C [Compound 2]
- wound width (HUVEC cells; 0.3 mM, 6 hours): 493.8 ± 133.1 µm
- wound width (HUVEC cells; 0.3 mM, 12 hours): 442.4 ± 142.9 µm
- wound width (HUVEC cells; 0.3 mM, 18 hours): 351.4 ± 82.6 µm
- wound width (HUVEC cells; 0.3 mM, 24 hours): 328.6 ± 56.9 µm
- wound width (HUVEC cells; 0.3 mM, Start): 637.4 ± 116.3 µm
- wound width (HUVEC cells; 1.0 mM, 6 hours): 590.8 ± 40.2 µm
- wound width (HUVEC cells; 1.0 mM, 12 hours): 541.5 ± 99.2 µm
- wound width (HUVEC cells; 1.0 mM, 18 hours): 453.1 ± 106.1 µm
- wound width (HUVEC cells; 1.0 mM, 24 hours): 357.2 ± 68.1 µm
- wound width (HUVEC cells; 1.0 mM, Start): 712.4 ± 56.5 µm
- Fmax—maximum clotting ([1]; 0.06 mM): 85.20 ± 6.52 %T
- Fvo—initial plasma clotting velocity ([1]; 0.06 mM): 124.35 ± 37.66 %T/min
- Sc—area under the curve of a stable clot formation ([1]; 0.06 mM): 562.66 ± 156.02 %T x min
- Sf—area under the clot formation curve ([1]; 0.06 mM): 91.44 ± 30.65 %T x min
- S—overall potential of clot formation ([1]; 0.06 mM): 1638.19 ± 135.59 %T x min
- TGt—thrombin generation time ([1]; 0.06 mM): 151.33 ± 26.37 s
- Tf—plasma clotting time ([1]; 0.06 mM): 98.28 ± 33.46 s
- Fmax—maximum clotting ([1]; 0.3 mM): 85.12 ± 5.67 %T
- Fvo—initial plasma clotting velocity ([1]; 0.3 mM): 142.17 ± 46.90 %T/min
- Sc—area under the curve of a stable clot formation ([1]; 0.3 mM): 602.85 ± 84.63 %T x min
- Sf—area under the clot formation curve ([1]; 0.3 mM): 79.63 ± 20.32 %T x min
- S—overall potential of clot formation ([1]; 0.3 mM): 1641.98 ± 118.29 %T x min
- TGt—thrombin generation time ([1]; 0.3 mM): 135.67 ± 25.90 s
- Tf—plasma clotting time ([1]; 0.3 mM): 85.08 ± 25.10 s
- Fmax—maximum clotting ([1]; 0.6 mM): 83.60 ± 6.72 %T
- Fvo—initial plasma clotting velocity ([1]; 0.6 mM): 140.83 ± 37.45 %T/min
- Sc—area under the curve of a stable clot formation ([1]; 0.6 mM): 583.07 ± 90.13 %T x min
- Sf—area under the clot formation curve ([1]; 0.6 mM): 88.00 ± 18.58 %T x min
- S—overall potential of clot formation ([1]; 0.6 mM): 1611.84 ± 135.58 %T x min
- TGt—thrombin generation time ([1]; 0.6 mM): 153.33 ± 21.05 s
- Tf—plasma clotting time ([1]; 0.6 mM): 91.58 ± 19.43 s
- Fmax—maximum clotting ([1]; 1.5 mM): 76.35 ± 9.75 %T
- Fvo—initial plasma clotting velocity ([1]; 1.5 mM): 120.32 ± 48.40 %T/min
- Sc—area under the curve of a stable clot formation ([1]; 1.5 mM): 511.33 ± 178.11 %T x min
- Sf—area under the clot formation curve ([1]; 1.5 mM): 87.66 ± 44.66 %T x min
- S—overall potential of clot formation ([1]; 1.5 mM): 1467.86 ± 181.79 %T x min
- TGt—thrombin generation time ([1]; 1.5 mM): 170.50 ± 31.73 s
- Tf—plasma clotting time ([1]; 1.5 mM): 101.45 ± 38.76 s

- Factor X activity (factor X; 0.3 mM): 107.60 ± 4.62%
- Factor X activity (factor X; 0.6 mM): 104.20 ± 4.97%
- Factor X activity (factor X; 1.5 mM): 97.40 ± 8.05%
SMILES: CCCCS(=O)(=O)NC(N)=NC(=N)N(C)C [Compound 1]
- wound width (HUVEC cells; 0.3 mM, 6 hours): 491.9 ± 31.7 µm
- wound width (HUVEC cells; 0.3 mM, 12 hours): 421.2 ± 5.9 µm
- wound width (HUVEC cells; 0.3 mM, 18 hours): 365.2 ± 35.8 µm
- wound width (HUVEC cells; 0.3 mM, 24 hours): 336.7 ± 39.0 µm
- wound width (HUVEC cells; 0.3 mM, Start): 605.8 ± 38.63 µm
- wound width (HUVEC cells; 1.0 mM, 6 hours): 461.9 ± 33.4 µm
- wound width (HUVEC cells; 1.0 mM, 12 hours): 375.1 ± 29.9 µm
- wound width (HUVEC cells; 1.0 mM, 18 hours): 344.4 ± 32.8 µm
- wound width (HUVEC cells; 1.0 mM, 24 hours): 337.5 ± 47.3 µm
- wound width (HUVEC cells; 1.0 mM, Start): 589.1 ± 36.3 µm
- Fmax—maximum clotting ([1]; 0.06 mM): 76.30 ± 7.79 %T
- Fvo—initial plasma clotting velocity ([1]; 0.06 mM): 97.22 ± 36.13 %T/min
- Sc—area under the curve of a stable clot formation ([1]; 0.06 mM): 458.27 ± 113.77 %T x min
- Sf—area under the clot formation curve ([1]; 0.06 mM): 140.16 ± 31.01 %T x min
- S—overall potential of clot formation ([1]; 0.06 mM): 1449.09 ± 154.09 %T x min
- TGt—thrombin generation time ([1]; 0.06 mM): 161.33 ± 35.27 s
- Tf—plasma clotting time ([1]; 0.06 mM): 155.67 ± 45.29 s
- Fmax—maximum clotting ([1]; 0.3 mM): 82.67 ± 4.79 %T
- Fvo—initial plasma clotting velocity ([1]; 0.3 mM): 117.65 ± 36.38 %T/min
- Sc—area under the curve of a stable clot formation ([1]; 0.3 mM): 544.47 ± 81.13 %T x min
- Sf—area under the clot formation curve ([1]; 0.3 mM): 104.53 ± 38.44 %T x min
- S—overall potential of clot formation ([1]; 0.3 mM): 1586.01 ± 103.04 %T x min
- TGt—thrombin generation time ([1]; 0.3 mM): 162.33 ± 37.96 s
- Tf—plasma clotting time ([1]; 0.3 mM): 109.63 ± 40.06 s
- Fmax—maximum clotting ([1]; 0.6 mM): 75.62 ± 9.88 %T
- Fvo—initial plasma clotting velocity ([1]; 0.6 mM): 96.52 ± 20.91 %T/min
- Sc—area under the curve of a stable clot formation ([1]; 0.6 mM): 444.40 ± 91.71 %T x min
- Sf—area under the clot formation curve ([1]; 0.6 mM): 119.01 ± 48.07 %T x min
- S—overall potential of clot formation ([1]; 0.6 mM): 1442.42 ± 198.39 %T x min
- TGt—thrombin generation time ([1]; 0.6 mM): 176.83 ± 57.02 s
- Tf—plasma clotting time ([1]; 0.6 mM): 138.77 ± 59.29 s
- Fmax—maximum clotting ([1]; 1.5 mM): 74.15 ± 7.83 %T
- Fvo—initial plasma clotting velocity ([1]; 1.5 mM): 107.77 ± 35.80 %T/min
- Sc—area under the curve of a stable clot formation ([1]; 1.5 mM): 452.95 ± 102.22 %T x min
- Sf—area under the clot formation curve ([1]; 1.5 mM): 114.89 ± 64.82 %T x min
- S—overall potential of clot formation ([1]; 1.5 mM): 1435.77 ± 143.80 %T x min
- TGt—thrombin generation time ([1]; 1.5 mM): 172.00 ± 43.56 s
- Tf—plasma clotting time ([1]; 1.5 mM): 135.33 ± 75.79 s

- Factor X activity (factor X; 0.3 mM): 105.60 ± 2.30%
- Factor X activity (factor X; 0.6 mM): 103.40 ± 7.23%
- Factor X activity (factor X; 1.5 mM): 104.20 ± 8.14%
SMILES: CN(C)C(=N)N=C(N)NS(=O)(=O)C1CCCCC1 [Compound 3]
- wound width (HUVEC cells; 0.3 mM, 6 hours): 606.7 ± 149.4 µm
- wound width (HUVEC cells; 0.3 mM, 12 hours): 486.0 ± 131.2 µm
- wound width (HUVEC cells; 0.3 mM, 18 hours): 441.9 ± 99.5 µm
- wound width (HUVEC cells; 0.3 mM, 24 hours): 395.9 ± 104.7 µm
- wound width (HUVEC cells; 0.3 mM, Start): 675.1 ± 94.6 µm
- wound width (HUVEC cells; 1.0 mM, 6 hours): 494.6 ± 106.9 µm
- wound width (HUVEC cells; 1.0 mM, 12 hours): 414.1 ± 103.5 µm
- wound width (HUVEC cells; 1.0 mM, 18 hours): 385.2 ± 94.5 µm
- wound width (HUVEC cells; 1.0 mM, 24 hours): 331.3 ± 62.5 µm
- wound width (HUVEC cells; 1.0 mM, Start): 609.3 ± 73.0 µm
- Fmax—maximum clotting ([1]; 0.06 mM): 84.78 ± 5.57 %T
- Fvo—initial plasma clotting velocity ([1]; 0.06 mM): 108.56 ± 28.63 %T/min
- Sc—area under the curve of a stable clot formation ([1]; 0.06 mM): 586.27 ± 95.97 %T x min
- Sf—area under the clot formation curve ([1]; 0.06 mM): 102.35 ± 29.66 %T x min
- S—overall potential of clot formation ([1]; 0.06 mM): 1628.36 ± 118.58 %T x min
- TGt—thrombin generation time ([1]; 0.06 mM): 155.00 ± 20.58 s
- Tf—plasma clotting time ([1]; 0.06 mM): 108.30 ± 35.15 s
- Fmax—maximum clotting ([1]; 0.3 mM): 82.66 ± 7.51 %T
- Fvo—initial plasma clotting velocity ([1]; 0.3 mM): 113.42 ± 23.98 %T/min
- Sc—area under the curve of a stable clot formation ([1]; 0.3 mM): 766.41 ± 394.94 %T x min
- Sf—area under the clot formation curve ([1]; 0.3 mM): 100.51 ± 28.00 %T x min
- S—overall potential of clot formation ([1]; 0.3 mM): 1580.91 ± 150.03 %T x min
- TGt—thrombin generation time ([1]; 0.3 mM): 139.60 ± 7.44 s
- Tf—plasma clotting time ([1]; 0.3 mM): 108.58 ± 33.64 s
- Fmax—maximum clotting ([1]; 0.6 mM): 82.44 ± 5.61 %T
- Fvo—initial plasma clotting velocity ([1]; 0.6 mM): 127.78 ± 40.82 %T/min
- Sc—area under the curve of a stable clot formation ([1]; 0.6 mM): 560.45 ± 102.47 %T x min
- Sf—area under the clot formation curve ([1]; 0.6 mM): 107.67 ± 29.19 %T x min
- S—overall potential of clot formation ([1]; 0.6 mM): 1580.02 ± 119.57 %T x min
- TGt—thrombin generation time ([1]; 0.6 mM): 158.40 ± 13.03 s
- Tf—plasma clotting time ([1]; 0.6 mM): 112.94 ± 35.34 s
- Fmax—maximum clotting ([1]; 1.5 mM): 77.50 ± 8.20 %T
- Fvo—initial plasma clotting velocity ([1]; 1.5 mM): 135.98 ± 31.06 %T/min
- Sc—area under the curve of a stable clot formation ([1]; 1.5 mM): 537.91 ± 99.63 %T x min
- Sf—area under the clot formation curve ([1]; 1.5 mM): 83.28 ± 17.34 %T x min
- S—overall potential of clot formation ([1]; 1.5 mM): 1494.31 ± 163.29 %T x min
- TGt—thrombin generation time ([1]; 1.5 mM): 165.40 ± 28.25 s
- Tf—plasma clotting time ([1]; 1.5 mM): 93.42 ± 26.49 s
